The source of these data is patent US4906467A, “Novel, long-duration treatment for glaucoma” (priority 1988, dated 1990).

“Also recorded” adds a separate entry of the source.

The subject of data set [1] is intraocular pressure. The conditions noted are these: cited from earlier work; for effect on intraocular pressure: in vivo.
The test system of another data set is aqueous humor formation. The conditions noted are these: in vivo; cited from earlier work.
For data set [2] the following is noted: rabbit, in vivo.
The conditions of data set [3]: in vivo; cited from earlier work.
The test system of data set [4] is RABBIT INTRAOCULAR PRESSURE
As to the kind of experiment: Effect of topical 12(R)-HETE on rabbit intraocular pressure (pneumotometer). The data set is classed as in vivo. The conditions noted are these: for intraocular pressure, difference from baseline (mean ± SEM): n = 6. How it is done:
A solution of 12(R)-HETE was prepared by dissolving 50 μg 12(R)-HETE in 1 ml ethanol and diluting to give aliquots containing 0.5 or 1.0 μg 12(R)-HETE in each of several containers. These could be frozen at -78° C. with or without ethanol. Before use, aliquots were warmed, ethanol was removed (if necessary) and sterile phosphate buffered saline (PBS) was added to give a concentration of 0.01 mg 12(R)-HETE/ml PBS. Rabbits were treated by administering 10 to 50 μl of 12(R)-HETE in PBS topically to the each eye of a 1.5 kg rabbit. Control rabbits were treated with PBS alone. Intraocular pressure was measured on a conventional pneumotometer, using a sensor size appropriate for the eye to be measured.
The pressure in each eye of the rabbits was measured several times before beginning the experiment to establish a baseline. Pressure was measured again just after administration of the test compound, then every 30 minutes for 180 minutes, daily for six days, and again on days 9 and 11. […] Table 1 illustrates the mean and standard error of the pressure difference from baseline in six animals treated with 0.5 μg 12(R)-HETE (per eye) compared with three controls, only one of which was tested after the first day.

Data set [5] in a line: Ocular side effects after topical administration in vivo (corneal thickness, clarity, side effects).
The test system of data set [6] is intraocular pressure. As to the kind of experiment: Intraocular pressure after topical 12(R)-HETE (general statement). The data set is classed as in vivo. The settings on record: effective dose.
The subject of data set [7] is ciliary body Na^+ -K^+ -ATPase. The conditions noted are these: cited from earlier work.
Data set [8] deals with corneal epithelial Na^+ -K^+ -ATPase. The settings on record: corneal epithelium, in vitro; cited from earlier work.
In the next data set the test system is Na^+ -K^+ -ATPases. The conditions noted are these: cited from earlier work.

`CNC[C@H](O)c1ccc(O)c(O)c1` [Epinephrine]: in the data set on intraocular pressure [1], the “effect on intraocular pressure” value is “reducing the intraocular pressure”. For the same compound, in the data set on aqueous humor formation, the “effect on production of aqueous humor” value is “decreases production of aqueous humor”.

Take `CCCCC/C=C\C[C@@H](O)/C=C/C=C\C/C=C\CCC[14C](=O)O` [1-(^14 C)-12(R)-HETE]: the “eye tissues with highest levels of 12(R)-HETE and its metabolites” value in data set [2] is “The highest levels were found in the cornea, ciliary bodies and trabecular meshwork”.

Consider `CC(C)(C)NC[C@H](O)COc1nsnc1N1CCOCC1` [Timolol], for which, in the data set on intraocular pressure [1] (glaucoma), the “duration of beneficial effect” value is given as “about 7 hours”. Besides, in the data set on intraocular pressure [1], the “effect on intraocular pressure” value is “effective in reducing intraocular pressure”. For the same compound, the “effect on production of aqueous humor” value in the data set on aqueous humor formation was “appears to act by reducing the production of aqueous humor”. Besides, the side effects result in data set [3] is “The side effects are minimal, although systemic absorption of the drug can occur, leading to slowing of the heart”.

Regarding `CCCCCC=CC[C@@H](O)C=CC=CCC=CCCCC(=O)O` [12(R)-HETE, 12(R)-hydroxy-eicosa-5,8,10,14-tetraenoic acid], the “intraocular pressure, difference from baseline (mean ± SEM)” value in [4] (0 min., 0.5 μg per eye topical) was -0.6 ± 0.9 mm Hg; in data set [4] (30 min, 0.5 μg per eye topical), -3.5 ± 1.9 mm Hg; in data set [4] (60 min, 0.5 μg per eye topical), -5.6 ± 1.4 mm Hg; in data set [4] (90 min, 0.5 μg per eye topical), -5.6 ± 1.3 mm Hg; in data set [4] (120 min, 0.5 μg per eye topical), -7.2 ± 1.6 mm Hg; in data set [4] (150 min, 0.5 μg per eye topical) it was -4.7 ± 2.8 mm Hg. The “intraocular pressure, difference from baseline (mean ± SEM)” value in data set [4] (180 min, 0.5 μg per eye topical) is -4.1 ± 2.2 mm Hg; in [4] (2 days, 0.5 μg per eye topical) it was -3.2 ± 2.1 mm Hg; in [4] (3 days, 0.5 μg per eye topical) it was -4.2 ± 1.2 mm Hg; in data set [4] (4 days, 0.5 μg per eye topical) it was -4.2 ± 1.0 mm Hg; in data set [4] (5 days, 0.5 μg per eye topical), -5.2 ± 2.1 mm Hg; in [4] (6 days, 0.5 μg per eye topical), -6.0 + 1.2 mm Hg. The “intraocular pressure, difference from baseline (mean ± SEM)” value in data set [4] (9 days, 0.5 μg per eye topical) is -7.4 ± 1.7 mm Hg; in data set [4] (11 days, 0.5 μg per eye topical) it was -2.9 ± 1.5 mm Hg; in data set [4] (Base (before dosing), 0.5 μg per eye, baseline 25.6 mm) it was 0.0 ± 1.4 mm Hg. In addition, the “onset and duration of intraocular pressure drop” value in data set [4] (0.5 μg per eye, rabbits, Table 1) is recorded as “short onset, sustained pressure drop”. Besides, the “intraocular pressure in test animals compared with control animals” value in [4] (0.5 μg per eye, vs PBS controls) is listed as “significantly below the pressure in control animals at all times after administration of the test drug”. Moreover, the untoward side effects entry in [5] (doses up to 1 μg per eye) is reported as “no untoward side effects have been observed”. In addition, the corneal clarity entry in [5] (topical, in vivo) is reported as “no loss of clarity”. In addition, the corneal thickness result in data set [5] (topical, in vivo) was “no increase in corneal thickness”. Besides, the “other observable side effects” value in data set [5] (topical, in vivo) is on record as “no other observable side effects”. In addition, the “duration of intraocular pressure decrease” value with intraocular pressure [6] is “a decrease in intraocular pressure for a period of several days; also recorded: remains depressed for several days”. The “onset of intraocular pressure drop” value in the data set on intraocular pressure [6] is reported as “drops within a few minutes”. Also, the “inhibition of Na+-K+-ATPase” value in data set [7] is “only the R isomer exhibits a significant inhibition of enzyme activity; also recorded: inhibit Na^+ -K^+ -ATPase isolated from the ciliary body”; in data set [8] it was “only the R isomer exhibits a significant inhibition of enzyme activity; also recorded: inhibit Na^+ -K^+ -ATPase isolated from the ciliary body and the corneal epithelium; also recorded: inhibit Na^+ -K^+ -ATPase in the corneal epithelium in vitro”. Further, the “inhibition of Na+-K+-ATPases” value in the data set on Na^+ -K^+ -ATPases is listed as “inhibitor of Na^+ -K^+ -ATPases”.

For `CNCC(O)c1ccc(OC(=O)C(C)(C)C)c(OC(=O)C(C)(C)C)c1` (stereo not drawn) [dipivalyl epinephrine], in the data set with intraocular pressure [1], the “effect on intraocular pressure” value is given as “reducing the intraocular pressure”. Moreover, the “effect on production of aqueous humor” value in the data set on aqueous humor formation is “decreases production of aqueous humor”.

Take `CC[C@@H]1C(=O)OC[C@@H]1Cc1cncn1C` [Pilocarpine]: in the data set with intraocular pressure [1], the “effect on intraocular pressure” value is reported as “a transitory rise in intraocular pressure, followed by a more persistent fall”. The “effect on pupil size / ciliary body tone / vision” value in data set [3] is recorded as “pupillary constriction, spasm of accomodation”.

Turning to `CC(=O)Nc1nnc(S(N)(=O)=O)s1` [acetazolamide], the “effect on intraocular pressure” value in the data set on intraocular pressure [1] is given as “lowering intraocular pressure in patients with glaucoma”. Moreover, the “effect on production of aqueous humor” value with aqueous humor formation is “reduces the rate of aqueous humor formation”.

As to `CC(=O)OC1CN2CCC1CC2` (stereo not drawn) [Aceclidine], the “effectiveness in reducing intraocular pressure compared with pilocarpine” value in the data set with intraocular pressure [1] (glaucoma) is reported as “approximately as effective as pilocarpine in reducing intraocular pressure”.

Regarding `CCCCCC=CC[C@H](O)C=CC=CCC=CCCCC(=O)O` [12(S)-HETE, reference compound], the “inhibition of Na+-K+-ATPase” value in data set [7] and in [8] was “only the R isomer exhibits a significant inhibition of enzyme activity” in each case.

Take `C[C@@H]1O[C@@H](O[C@H]2C[C@@H](O)[C@]3(CO)[C@H]4[C@H](O)C[C@]5(C)[C@@H](C6=CC(=O)OC6)CC[C@]5(O)[C@@H]4CC[C@]3(O)C2)[C@H](O)[C@H](O)[C@H]1O` [ouabain]: in the data set on Na^+ -K^+ -ATPases, the “inhibition of Na+-K+-ATPases” value is recorded as “inhibit Na^+ -K^+ -ATPases”. Moreover, the “effect on intraocular pressure” value in the data set with intraocular pressure [1] is reported as “decrease intraocular pressure”. The side effects result in [3] is “severe side effects including keratitis and inflammation of the cornea”.
